Measurements as given in US7855228B2, “Antibiotics targeting MreB” (The Board of Trustees of the Leland Stamford Junior …, priority 2005, dated 2010).
In brackets after ≈: the same amount, converted by molar mass. Where two headings read alike, the source gives them in different places.

Legend:
P. putida NBRC14164 = experiment: Determination of minimum inhibitory concentration (MIC); assay type: cell-based, Pseudomonas putida; conditions: for MIC: Pseudomonas putida; for MIC P. putida: Example 2
Protocol: (§1) Determination of minimum inhibitory concentration (MIC). MICs were also determined on Mueller Hinton agar plates (0.2% beef extract, 1.75% acid digest of casein, 0.15% soluble starch, 1.5% agar, pH 7.3).
(§2) Determination of MIC Minimal inhibitory concentrations (MICs) were determined using a standard 2-fold serial dilution format on L agar plates. Ten microliters of stationary culture diluted in 0.85% NaCl to 10^6 cells/ml were spotted on per plate. […] MICs were also determined on Mueller Hinton agar plates (0.2% beef extract, 1.75% acid digest of casein, 0.15% soluble starch, 1.5% agar, pH 7.3).

B. subtilis 168 = experiment: as above; assay type: cell-based, Bacillus subtilis; conditions: for MIC B. subtilis: Example 2
Protocol: as §1, §2

S. typhimurium NBRC13245 = experiment: as above; assay type: cell-based, Salmonella typhimurium; conditions: for MIC: Salmonella enterica, read-out: MIC S. typhimurium
Protocol: as §1, §2

E. coli MG1655 [1] = experiment: as above; assay type: cell-based; conditions: for MIC: Escherichia coli; for MIC E. coli: Example 2
Protocol: as §1, §2

E. coli MG1655 [2] = experiment: Microscopic observation of cell shape; assay type: cell-based; conditions: for Effect on E. coli cell morphology (in words): 3×MIC or 300 μg/ml, 16 hrs
Protocol: Microscopic observation. E. coli K-12 strain MG1655 (F^− λ^−) was grown in Lennox broth containing 1% Polypepton, 0.5% yeast extract, 0.5% NaCl, and 0.1% glucose (pH 7.2). Cells spread on a slide glass were treated with methanol for 5 min and covered with poly-L-lysine. The fixed cells were observed by the differential interference contrast system through an Axioskop 2 microscope (Carl Zeiss Co., Ltd., Oberkochen, Germany). To observe the anucleate cells, cells were stained with a 4′,6-diamidino-2-phenylindole (DAPI) solution (5 μg/ml in saline) and then observed by the fluorescence phase-contrast combined method.
The effect of each compound on E. coli cell morphology was next examined.

[3] = tested on: S. aureus subsp. aureus NBRC15035; experiment: Determination of minimum inhibitory concentration (MIC); assay type: cell-based, Staphylococcus aureus; conditions: for MIC: Staphylococcus aureus; for MIC S. aureus: Example 2
Protocol: as §1, §2

[4] = tested on: E. coli K-12 strain SH3210; experiment: Anucleate cell blue assay; assay type: cell-based
Protocol: Anucleate cell blue assay. The anucleate cell blue assay was carried out as reported previously. Briefly, E. coli K-12 strain SH3210 (ΔtrpE5 his λ pXX747) was grown in a P medium containing 1% Polypepton and 0.5% NaCl (pH 7). Paper disks (φ 8 mm) each soaked with 20 μl of a sample solution were placed on P medium agar plates (1.5% agar) containing 10^4 cells/ml of SH3210 and 40 μg/ml of 5-bromo-4-chloro-3-indolyl β-D-galactoside. The plates were incubated at 42° C. for 24 h, and the development of a blue color and the growth inhibitory zone around the paper disks were evaluated.
Since 1 had originally been found through screening by an anucleate cell blue assay, the effect of each compound was first examined by this assay.

[5] = NBRC14164, Example 2, methods as in Example 1, read-out: MIC P. putida
[6] = NBRC14164, Table 1, NBRC14164, read-out: MIC P. putida
[7] = Bacillus subtilis, 168, Example 2, methods as in Example 1, read-out: MIC B. subtilis
[8] = Bacillus subtilis, 168, Table 1, B. subtilis 168, read-out: MIC B. subtilis
[9] = Example 2, methods as in Example 1
[10] = MG1655, Example 2, methods as in Example 1, read-out: MIC E. coli
[11] = MG1655, Table 1, E. coli MG1655, read-out: MIC E. coli
[12] = E. coli MG1655 treated at 3×MIC (*), 30° C., 16 h
[13] = NBRC15035, Example 2, methods as in Example 1, read-out: MIC S. aureus
[14] = NBRC15035, Table 1, NBRC15035, read-out: MIC S. aureus
[15] = E. coli MG1655 treated at 300 μg/ml (**), 30° C., 16 h
[16] = NBRC14164, read-out: MIC P. putida
[17] = Bacillus subtilis, 168, read-out: MIC B. subtilis
[18] = NBRC15035, read-out: MIC S. aureus

SMILES | MIC (P. putida NBRC14164; [5]) [µg/mL] | MIC (P. putida NBRC14164; [6]) [µg/mL] | MIC (B. subtilis 168; [7]) [µg/mL] | MIC (B. subtilis 168; [8]) [µg/mL] | MIC (S. typhimurium NBRC13245; [9]) [µg/mL] | MIC (S. typhimurium NBRC13245; Table 1, NBRC13245) [µg/mL] | MIC (E. coli MG1655 [1]; [10]) [µg/mL] | MIC (E. coli MG1655 [1]; [11]) [µg/mL] | Effect on E. coli cell morphology (in words) (E. coli MG1655 [2]; 30° C.) | Shape (E. coli MG1655 [2]; [12]) | Shape (E. coli MG1655 [2]; [9]) | MIC [3, 13] [µg/mL] | MIC [3, 14] [µg/mL] | Growth inhibitory zone and blue zone in the anucleate cell blue assay (in words) [4] | Shape (E. coli MG1655 [2]; [15]) | other results
N=C(N)SCc1ccc(Cl)cc1 [Compound 2, S-(4-chlorobenzyl)isothiourea] | > 100 | > 100 | > 100 | > 100 | 3.13 (≈ 15.6 µM) | 3.13 (≈ 15.6 µM) | 3.13 (≈ 15.6 µM) | 3.13 (≈ 15.6 µM) | induced a spherical cell shape | Sphere* | Sphere | > 100 | > 100 | deep blue zone around a growth inhibitory zone almost comparable to those of 1 |  | 
N=C(N)SCc1ccccc1 [Compound 3, S-benzylisothiourea] | > 100 | > 100 | > 100 | > 100 | > 100 | > 100 | 100 (≈ 602 µM) | 100 (≈ 602 µM) | induced a spherical cell shape | Sphere* | Sphere | > 100 | > 100 | blue zone just around the paper disk, but only a marginal growth inhibitory zone was detected |  | 
N=C(N)SCC1CCCCC1 [Compound 4] | > 200 | > 100 | > 200 | > 100 | > 200 | > 100 | > 200 | > 100 | shorter than corresponding untreated cells, but spherical cells were not induced |  | Short Rod | > 200 | > 100 | neither a growth inhibitory zone nor blue zone | Rod** | 
CCCCCCCSC(=N)N [Compound 5, S-heptylisothiourea] | 200 (≈ 1150 µM) | > 100 | > 200 | > 100 | > 200 | > 100 | 200 (≈ 1150 µM) | > 100 | somewhat elongated cells, but not spherical cells |  | Rod | > 200 | > 100 | a growth inhibitory zone as well as a blue zone | Rod** | 
CCSC(=N)N [Compound 6, S-ethylisothiourea] |  |  |  |  |  |  |  |  |  |  | Rod |  |  | neither a growth inhibitory zone nor blue zone | Rod** | MIC P. putida (P. putida NBRC14164; methods as in Example 1): >100 µg/mL; MIC (P. putida NBRC14164; [16]): > 100 µg/mL; MIC (B. subtilis 168; [17]): > 100 µg/mL; MIC B. subtilis (B. subtilis 168; methods as in Example 1): >100 µg/mL; MIC S. typhimurium (S. typhimurium NBRC13245; [9]): >100 µg/mL; MIC (S. typhimurium NBRC13245): > 100 µg/mL; MIC (E. coli MG1655 [1]; MG1655, read-out: MIC E. coli): > 100 µg/mL; MIC E. coli (E. coli MG1655 [1]; methods as in Example 1): >100 µg/mL; MIC S. aureus ([3]; methods as in Example 1): >100 µg/mL; MIC [3, 18]: > 100 µg/mL
N#CSCc1ccccc1 [Compound 7, S-benzylithiocyanate, reference compound] |  |  |  |  |  |  |  |  |  | Rod* | Rod |  |  | neither a growth inhibitory zone nor blue zone |  | MIC P. putida (P. putida NBRC14164; methods as in Example 1): >100 µg/mL; MIC (P. putida NBRC14164; [16]): > 100 µg/mL; MIC (B. subtilis 168; [17]): > 100 µg/mL; MIC B. subtilis (B. subtilis 168; methods as in Example 1): >100 µg/mL; MIC S. typhimurium (S. typhimurium NBRC13245; [9]): >100 µg/mL; MIC (S. typhimurium NBRC13245): > 100 µg/mL; MIC (E. coli MG1655 [1]; MG1655, read-out: MIC E. coli): > 100 µg/mL; MIC E. coli (E. coli MG1655 [1]; methods as in Example 1): >100 µg/mL; MIC S. aureus ([3]; methods as in Example 1): >100 µg/mL; MIC [3, 18]: > 100 µg/mL
S=C=NCc1ccccc1 [Compound 8, benzylisothiocyanate, reference compound] | > 100 | > 100 | 25 (≈ 168 µM) | 25 (≈ 168 µM) | 100 (≈ 670 µM) | 100 (≈ 670 µM) | 50 (≈ 335 µM) | 50 (≈ 335 µM) |  |  | Rod | 12.5 (≈ 83.8 µM) | 12.5 (≈ 83.8 µM) | a growth inhibitory zone, but no blue zone developed | Rod** | 
